# The source made the active and inactive calls. The rule behind the calls is not given here.
# Columns and labels:
# [1] = Stimulation of ex vivo expansion of human CD34+ cells assessed as increase in CD34+CD38- cells at 165 nM incubated for 7 days supplemented with 50% fresh medium containing cytokines every other day by flow cytometry relative to base line; format: functional
# [2] = Stimulation of ex vivo expansion of human CD34+ cells assessed as CD34+/CD38- level at 0.01 to 1 uM incubated for 7 days supplemented with 50% fresh medium containing cytokines every other day by flow cytometry relative to control; format: functional
# Homo sapiens [3] = species: Homo sapiens; experiment: Stimulation of ex vivo expansion of human CD34+ cells assessed as increase in granulocyte/macrophage differentiation at 165 nM measured after 14 days; format: functional
# [4] = Stimulation of ex vivo expansion of human CD34+ cells assessed as CD34+CD38-CD90+[…] cells at 165 nM incubated for 7 days supplemented with 50% fresh medium containing cytokines every other day by flow cytometry (reference value: 2.98 +/- 0.5%); format: functional
# [5] = Stimulation of ex vivo expansion of human CD34+CD38- cells assessed as increase in expansion of total cells at 165 nM incubated for 7 days supplemented with 50% fresh medium containing cytokines every other day by flow cytometry relative to control; format: functional
# [6] = Cytotoxicity against human CD34+ cells assessed as live cells at 165 nM incubated for 7 days supplemented with 50% fresh medium containing cytokines every other day by flow cytometry (reference value: 77.3 +/- 2%); format: cell-based; conditions: read-out: Activity
# [7] = Stimulation of ex vivo expansion of human CD34+ cells assessed as increase in expansion of total cells at 165 nM incubated for 7 days supplemented with 50% fresh medium containing cytokines every other day by flow cytometry relative to control; format: functional
# [8] = Stimulation of ex vivo expansion of human CD34+ cells assessed as CD34+ cells at 165 nM incubated for 7 days supplemented with 50% fresh medium containing cytokines every other day by flow cytometry (reference value: 25.9 +/- 0.01%); format: functional
# [9] = Stimulation of ex vivo expansion of human CD34+ cells assessed as CD34+/CD38- cells at 165 nM incubated for 7 days supplemented with 50% fresh medium containing cytokines every other day by flow cytometry (reference value: 19.16 +/- 0.32%); format: functional
# [10] = Stimulation of ex vivo expansion of human CD34+ cells assessed as CD34+CD38-CD90+[…]CD49F+ cells at 165 nM incubated for 7 days supplemented with 50% fresh medium containing cytokines every other day by flow cytometry (reference value: 0.16 +/- 0.04%); format: functional
# Homo sapiens [11] = species: Homo sapiens; experiment: Stimulation of ex vivo expansion of human CD34+ assessed as increase in granulocyte differentiation at 165 nM measured after 14 days; format: functional
# THP-1 = experiment: Cytotoxicity against human THP1 cells assessed as reduction cell viability up to 1600 nM after 4 days by CCK8 assay; format: cell-based; conditions: thp-1, 96 h
# [12] = Stimulation of ex vivo expansion of human CD34+ cells assessed as colony forming cells at 165 nM measured after 14 days; format: functional
# [13] = Stimulation of ex vivo expansion of human CD34+ cells assessed as CD34+CD38- level incubated for 7 days supplemented with 50% fresh medium containing cytokines every other day by flow cytometry; format: functional; conditions: Homo sapiens, 168 h; read-out: EC50
# [14] = Stimulation of ex vivo expansion of human CD34+ cells assessed as increase in colony forming cells at 165 nM after 14 days relative to control; format: functional
# Homo sapiens [15] = species: Homo sapiens; experiment: Stimulation of ex vivo expansion of human CD34+ cells assessed as decrease in burst forming units of erythroid at 165 nM measured after 14 days; format: functional
# [16] = Stimulation of ex vivo expansion of human CD34+ cells assessed as increase in CD34+ cells at 165 nM incubated for 7 days supplemented with 50% fresh medium containing cytokines every other day by flow cytometry relative to base line; format: functional
# [17] = Stimulation of ex vivo expansion of human CD34+ cells assessed as CD34+CD38- level at 0.01 to 1 uM incubated for 7 days supplemented with 50% fresh medium containing cytokines every other day by flow cytometry (reference value: 19.10 +/- 0.35%); format: functional
# [18] = Stimulation of ex vivo expansion of human CD34+ cells assessed as increase in CD34+CD38- cells at 165 nM incubated for 7 days supplemented with 50% fresh medium containing cytokines every other day by flow cytometry relative to control; format: functional
# [19] = Stimulation of ex vivo expansion of human CD34+ cells assessed as increase in expansion of total cells at 165 nM incubated for 7 days supplemented with 50% fresh medium containing cytokines every other day by flow cytometry relative to base line; format: functional
structure (smiles),measurement,setting,value
COc1cc2c(cc1OC)CN(CCNc1nc(Cc3ccccc3)nc3[nH]c4cc(-c5nnn(C)n5)ccc4c13)CC2,fold change (FC),[1],4 - 5
same,fold change (FC),[2],3.65
same,Activity,Homo sapiens [3],Active
same,Activity,[4],4.05%
same,fold change (FC),[5],4.9
same,"viability at 168 h, 0.165 µM",[6],80.6%
same,fold change (FC),[7],2.4
same,Activity,[8],60.33%
same,Activity,[9],58%
same,Activity,[10],0.21%
same,Activity,Homo sapiens [11],Active
same,Activity,THP-1,Non-Toxic
same,Activity,[12],254 CFU
same,EC50,[13],30 nM
same,fold change (FC),[14],1.4
same,Activity,Homo sapiens [15],Active
same,fold change (FC),[16],5
same,Activity,[17],69.69%
same,fold change (FC),[18],4.4
same,fold change (FC),[19],5

# From ChEMBL document CHEMBL4393685, “Synthesis and evaluation of pyrimidoindole analogs in umbilical cord blood ex vivo expansion” (Eur J Med Chem, 2019)
